Reference: ChEMBL document CHEMBL3396981, “Synthesis and in vitro biological evaluation of 2-(phenylcarbamoyl)phenyl 4-substituted benzoates” (Bioorg Med Chem, 2015)
≈ marks a conversion by molar mass, not a printed value.

Tests used:
[1] = test system: Mycobacterium tuberculosis; experiment: Antimycobacterial activity against INH, RIF, rifabutin, streptomycin, ethambutol, clofazimine-resistant Mycobacterium tuberculosis Praha 1 after 21 days by microdilution method; assay type: functional; conditions: Praha 1, 504 h
[2] = test system: Mycobacterium tuberculosis; experiment: Antimycobacterial activity against INH, RIF, rifabutin, streptomycin, ethambutol, ofloxacin-resistant Mycobacterium tuberculosis 7357/1998 after 21 days by microdilution method; assay type: functional; conditions: 7357/1998, 504 h
[3] = test system: Mycobacterium tuberculosis; experiment: Antimycobacterial activity against INH, RIF, rifabutin, streptomycin, ethambutol, ofloxacin, gentamicin, amikacin-resistant Mycobacterium tuberculosis Praha 131 after 21 days by microdilution method; assay type: functional; conditions: Praha 131, 504 h
[4] = test system: Mycobacterium tuberculosis; experiment: Antimycobacterial activity against INH, RIF, rifabutin, streptomycin, ethambutol, clofazimine-resistant Mycobacterium tuberculosis Praha 1 after 14 days by microdilution method; assay type: functional; conditions: Praha 1, 336 h
[5] = test system: Mycobacterium tuberculosis; experiment: Antimycobacterial activity against INH, RIF, rifabutin, streptomycin, ethambutol, ofloxacin-resistant Mycobacterium tuberculosis 234/2005 after 21 days by microdilution method; assay type: functional; conditions: 234/2005, 504 h
[6] = test system: Mycobacterium tuberculosis; experiment: Antimycobacterial activity against INH, RIF, rifabutin, streptomycin, ethambutol, ofloxacin-resistant Mycobacterium tuberculosis 234/2005 after 14 days by microdilution method; assay type: functional; conditions: 234/2005, 336 h
[7] = test system: Mycobacterium tuberculosis; experiment: Antimycobacterial activity against INH, RIF, rifabutin, streptomycin, ethambutol, ofloxacin, gentamicin, amikacin-resistant Mycobacterium tuberculosis Praha 131 after 14 days by microdilution method; assay type: functional; conditions: Praha 131, 336 h
[8] = test system: Mycobacterium tuberculosis; experiment: Antimycobacterial activity against INH, RIF, rifabutin, streptomycin, ethambutol, ofloxacin-resistant Mycobacterium tuberculosis 7357/1998 after 14 days by microdilution method; assay type: functional; conditions: 7357/1998, 336 h
[9] = test system: Mycobacterium tuberculosis; experiment: Antimycobacterial activity against INH, RIF, rifabutin, streptomycin-resistant Mycobacterium tuberculosis 9449/2006 after 21 days by microdilution method; assay type: functional; conditions: 9449/2006, 504 h
[10] = test system: Mycobacterium tuberculosis; experiment: Antimycobacterial activity against INH, RIF, rifabutin, streptomycin-resistant Mycobacterium tuberculosis 9449/2006 after 14 days by microdilution method; assay type: functional; conditions: 9449/2006, 336 h
[11] = Selectivity index, ratio of IC50 for human HepG2 cells to MIC for multidrug-resistant Mycobacterium tuberculosis; assay type: toxicity, cell-based; conditions: read-out: Selectivity Index
[12] = test system: Mycobacterium tuberculosis; experiment: Antimycobacterial activity against INH, RIF, rifabutin, streptomycin, ethambutol, ofloxacin, clofazimine-resistant Mycobacterium tuberculosis Praha 4 after 21 days by microdilution method; assay type: functional; conditions: Praha 4, 504 h
[13] = test system: Mycobacterium tuberculosis; experiment: Antimycobacterial activity against INH, RIF, rifabutin, streptomycin, ethambutol, ofloxacin, clofazimine-resistant Mycobacterium tuberculosis Praha 4 after 14 days by microdilution method; assay type: functional; conditions: Praha 4, 336 h

SMILES	MIC [1] [µM]	MIC [2] [µM]	MIC [3] [µM]	MIC [4] [µM]	MIC [5] [µM]	MIC [6] [µM]	MIC [7] [µM]	MIC [8] [µM]	MIC [9] [µM]	MIC [10] [µM]	selectivity ratio [11]	MIC [12] [µM]	MIC [13] [µM]
O=C(Oc1ccc(Cl)cc1C(=O)Nc1ccc(C(F)(F)F)cc1)c1ccccc1	0.5 (≈ 0.21 µg/mL)	0.5 (≈ 0.21 µg/mL)	0.5 (≈ 0.21 µg/mL)	0.5 (≈ 0.21 µg/mL)	0.25 (≈ 0.105 µg/mL)	0.25 (≈ 0.105 µg/mL)	0.25 (≈ 0.105 µg/mL)	0.25 (≈ 0.105 µg/mL)	0.5 (≈ 0.21 µg/mL)	0.5 (≈ 0.21 µg/mL)	–	–	–
Cc1ccc(C(=O)Oc2ccc(Br)cc2C(=O)Nc2ccc(C(F)(F)F)cc2)cc1	1 (≈ 0.478 µg/mL)	1 (≈ 0.478 µg/mL)	1 (≈ 0.478 µg/mL)	1 (≈ 0.478 µg/mL)	2 (≈ 0.957 µg/mL)	2 (≈ 0.957 µg/mL)	1 (≈ 0.478 µg/mL)	1 (≈ 0.478 µg/mL)	1 (≈ 0.478 µg/mL)	1 (≈ 0.478 µg/mL)	> 25	1 (≈ 0.478 µg/mL)	1 (≈ 0.478 µg/mL)
O=C(Oc1ccc(Cl)cc1C(=O)Nc1ccc(Cl)c(Cl)c1)c1ccccc1	0.5 (≈ 0.21 µg/mL)	0.5 (≈ 0.21 µg/mL)	1 (≈ 0.421 µg/mL)	0.5 (≈ 0.21 µg/mL)	0.5 (≈ 0.21 µg/mL)	0.25 (≈ 0.105 µg/mL)	0.5 (≈ 0.21 µg/mL)	0.5 (≈ 0.21 µg/mL)	1 (≈ 0.421 µg/mL)	0.5 (≈ 0.21 µg/mL)	–	–	–
O=C(Oc1ccc(Cl)cc1C(=O)Nc1ccc(Cl)c(Cl)c1)c1ccc(Br)cc1	–	0.125 (≈ 0.0624 µg/mL)	0.25 (≈ 0.125 µg/mL)	–	–	–	0.25 (≈ 0.125 µg/mL)	0.125 (≈ 0.0624 µg/mL)	0.5 (≈ 0.25 µg/mL)	0.25 (≈ 0.125 µg/mL)	> 100	0.5 (≈ 0.25 µg/mL)	0.25 (≈ 0.125 µg/mL)
O=C(Oc1ccc(Cl)cc1C(=O)Nc1ccc(C(F)(F)F)cc1)c1ccc(C(F)(F)F)cc1	0.5 (≈ 0.244 µg/mL)	1 (≈ 0.488 µg/mL)	1 (≈ 0.488 µg/mL)	0.5 (≈ 0.244 µg/mL)	1 (≈ 0.488 µg/mL)	0.5 (≈ 0.244 µg/mL)	0.5 (≈ 0.244 µg/mL)	0.5 (≈ 0.244 µg/mL)	1 (≈ 0.488 µg/mL)	1 (≈ 0.488 µg/mL)	–	–	–
Cc1ccc(C(=O)Oc2ccc(Cl)cc2C(=O)Nc2ccc(C(F)(F)F)cc2)cc1	1 (≈ 0.434 µg/mL)	1 (≈ 0.434 µg/mL)	1 (≈ 0.434 µg/mL)	1 (≈ 0.434 µg/mL)	2 (≈ 0.868 µg/mL)	2 (≈ 0.868 µg/mL)	1 (≈ 0.434 µg/mL)	1 (≈ 0.434 µg/mL)	1 (≈ 0.434 µg/mL)	1 (≈ 0.434 µg/mL)	> 25	1 (≈ 0.434 µg/mL)	1 (≈ 0.434 µg/mL)
O=C(Oc1ccc(Br)cc1C(=O)Nc1ccc(C(F)(F)F)cc1)c1ccc([N+](=O)[O-])cc1	–	0.5 (≈ 0.255 µg/mL)	0.5 (≈ 0.255 µg/mL)	–	–	–	0.25 (≈ 0.127 µg/mL)	0.5 (≈ 0.255 µg/mL)	0.5 (≈ 0.255 µg/mL)	0.5 (≈ 0.255 µg/mL)	> 100	0.5 (≈ 0.255 µg/mL)	0.5 (≈ 0.255 µg/mL)
